From ChEMBL document CHEMBL1201862, “PubChem BioAssay data set” (2004)
Activity calls are given as the source filed them.

Experiments:
[1] = target: Voltage-dependent T-type calcium channel subunit alpha-1H (Homo sapiens, UniProt O95180); format: functional;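 note: channel activity triggered by adding a high calcium stimulation buffer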
Prothrombin = Prothrombin (Homo sapiens, UniProt P00734); assay: Thrombin 1536 HTS Dose Response Confirmation. [Related pubchem assays: 1046 (Thrombin 1536 HTS; hits were confirmed in this assay)]; format: functional
[2] = target: T1, Ubiquitin-conjugating enzyme E2 N (Homo sapiens, UniProt P61088); format: functional
T1 sequence (P61088 whole entry): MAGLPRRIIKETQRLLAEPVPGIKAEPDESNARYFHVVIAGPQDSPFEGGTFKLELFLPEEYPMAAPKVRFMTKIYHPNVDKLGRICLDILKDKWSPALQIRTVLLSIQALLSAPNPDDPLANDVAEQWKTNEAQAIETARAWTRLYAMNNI

[3] = target: T1, Ubiquitin-conjugating enzyme E2 N; format: functional; remark: listed apart in the source
Bcl-2-related protein A1 = target: T2, Bcl-2-related protein A1 (Mus musculus, UniProt Q07440); format: functional;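 note: confirmatory dose–response counterscreen on Bfl-1, used to check hits from a UBC13 polyubiquitin inhibitor campaign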
T2 sequence (Q07440 whole entry): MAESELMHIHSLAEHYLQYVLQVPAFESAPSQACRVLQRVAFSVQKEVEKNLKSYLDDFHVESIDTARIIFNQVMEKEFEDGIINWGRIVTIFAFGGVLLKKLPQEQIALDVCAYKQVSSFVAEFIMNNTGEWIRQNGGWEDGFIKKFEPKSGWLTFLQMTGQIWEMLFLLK

[4] = THP-1 cell cytotoxicity, dose response, cytotoxicity control for Vif-APOBEC3G degradation inhibitor project, THP-1 cells (AID 1117359); format: functional; details: Human immunodeficiency virus 1, THP-1
[5] = growth suppression of beta-catenin-knockout colon cells, dose response, cell-based, HCT116, human colon tumor (AID 1045); format: functional;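 note: HCT116 colon tumor cells with beta catenin knocked out; cells exposed to compound for 60 hours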
[6] = growth suppression of PTEN-null colon cells, dose response, cell-based, HCT116 PTEN knockout (AID 1047); format: functional;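 note: HCT116 colon tumor cells with PTEN knocked out; cells exposed to compound for 60 hours before readout; potency for loss of cell viability measured by luminescence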
Cytochrome P450 2D6 = Cytochrome P450 2D6 (Homo sapiens, UniProt P10635);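 note: CYP2D6 member of a cytochrome P450 panel assay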
Chain of Cytochrome P450 2D6 (P10635 whole entry): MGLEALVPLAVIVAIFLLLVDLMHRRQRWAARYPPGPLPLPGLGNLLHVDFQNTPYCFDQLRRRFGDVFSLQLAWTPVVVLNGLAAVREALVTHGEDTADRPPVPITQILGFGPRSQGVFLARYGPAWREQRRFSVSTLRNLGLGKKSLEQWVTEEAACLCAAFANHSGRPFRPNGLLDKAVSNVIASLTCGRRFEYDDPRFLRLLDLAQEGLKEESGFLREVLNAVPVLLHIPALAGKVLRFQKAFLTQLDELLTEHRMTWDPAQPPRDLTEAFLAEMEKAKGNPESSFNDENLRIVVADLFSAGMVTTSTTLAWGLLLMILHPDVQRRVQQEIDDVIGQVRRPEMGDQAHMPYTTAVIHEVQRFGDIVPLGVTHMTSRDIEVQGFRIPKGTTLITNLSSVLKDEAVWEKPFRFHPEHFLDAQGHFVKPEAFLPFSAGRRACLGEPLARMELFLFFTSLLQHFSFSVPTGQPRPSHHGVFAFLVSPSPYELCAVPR

Cytochrome P450 1A2 = target: T3, Cytochrome P450 1A2 (Homo sapiens, UniProt P05177);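 note: PubChem cytochrome P450 panel assay, CYP1A2 panel member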
T3 sequence (P05177 whole entry): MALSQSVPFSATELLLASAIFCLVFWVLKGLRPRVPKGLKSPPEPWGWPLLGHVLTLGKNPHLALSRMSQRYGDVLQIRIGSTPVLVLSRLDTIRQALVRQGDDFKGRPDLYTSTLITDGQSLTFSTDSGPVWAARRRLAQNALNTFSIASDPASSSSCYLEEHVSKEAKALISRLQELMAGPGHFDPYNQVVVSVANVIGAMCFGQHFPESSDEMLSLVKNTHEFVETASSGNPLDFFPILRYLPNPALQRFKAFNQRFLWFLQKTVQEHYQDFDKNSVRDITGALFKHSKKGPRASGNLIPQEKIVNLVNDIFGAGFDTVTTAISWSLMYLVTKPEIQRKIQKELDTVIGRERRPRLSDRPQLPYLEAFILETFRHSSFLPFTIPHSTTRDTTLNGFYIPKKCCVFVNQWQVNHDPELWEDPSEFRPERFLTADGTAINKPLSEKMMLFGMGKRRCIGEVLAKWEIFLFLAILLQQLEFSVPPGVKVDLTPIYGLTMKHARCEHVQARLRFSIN

[7] = Luminescence Cell-Based Dose Retest to Confirm Inhibitors of Cancer Stem Cells. [Related pubchem assays (depositor defined):AID2717, AID2721]; format: functional; details: Homo sapiens
[8] = target: T4, Replicative DNA helicase DnaB (Mycobacterium tuberculosis, UniProt P9WMR3); assay: DnaB intein splicing inhibitors, dose response, biochemical, cell-free fluorescence (AID 449749); format: functional
T4 sequence (P9WMR3 whole entry): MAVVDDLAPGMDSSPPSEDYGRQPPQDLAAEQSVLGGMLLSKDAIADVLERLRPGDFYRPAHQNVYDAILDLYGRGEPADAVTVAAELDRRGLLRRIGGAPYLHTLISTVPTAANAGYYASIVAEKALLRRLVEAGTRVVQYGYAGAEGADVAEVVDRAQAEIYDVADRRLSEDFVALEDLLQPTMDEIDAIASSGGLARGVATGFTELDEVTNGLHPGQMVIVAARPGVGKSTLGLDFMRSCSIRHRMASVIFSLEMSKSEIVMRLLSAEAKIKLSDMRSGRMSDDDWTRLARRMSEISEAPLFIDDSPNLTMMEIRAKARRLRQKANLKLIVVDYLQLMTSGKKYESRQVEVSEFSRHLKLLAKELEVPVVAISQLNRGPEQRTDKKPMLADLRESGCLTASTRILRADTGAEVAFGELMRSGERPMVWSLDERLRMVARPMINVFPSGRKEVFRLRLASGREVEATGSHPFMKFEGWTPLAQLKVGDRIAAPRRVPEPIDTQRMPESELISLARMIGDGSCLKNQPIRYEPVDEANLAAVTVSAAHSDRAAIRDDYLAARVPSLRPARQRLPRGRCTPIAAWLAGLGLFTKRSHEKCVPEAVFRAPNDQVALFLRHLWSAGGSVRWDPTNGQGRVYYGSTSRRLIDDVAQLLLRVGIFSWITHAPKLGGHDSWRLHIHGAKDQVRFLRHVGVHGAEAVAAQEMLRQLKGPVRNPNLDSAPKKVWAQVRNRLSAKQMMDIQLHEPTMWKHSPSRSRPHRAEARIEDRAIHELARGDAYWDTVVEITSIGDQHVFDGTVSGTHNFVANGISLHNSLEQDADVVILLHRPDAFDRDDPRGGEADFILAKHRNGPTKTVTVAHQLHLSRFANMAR

Protein RecA = target: T5, Protein RecA (Mycobacterium tuberculosis, UniProt P9WHJ3); assay: Fluorescence Cell-Free Homogeneous Dose Retest to Identify Inhibitors of RecA-Intein Splicing Activity. [Related pubchem assays (depositor defined):AID2097, AID2223, AID489010, AID492950]; format: functional
T5 sequence (P9WHJ3 whole entry): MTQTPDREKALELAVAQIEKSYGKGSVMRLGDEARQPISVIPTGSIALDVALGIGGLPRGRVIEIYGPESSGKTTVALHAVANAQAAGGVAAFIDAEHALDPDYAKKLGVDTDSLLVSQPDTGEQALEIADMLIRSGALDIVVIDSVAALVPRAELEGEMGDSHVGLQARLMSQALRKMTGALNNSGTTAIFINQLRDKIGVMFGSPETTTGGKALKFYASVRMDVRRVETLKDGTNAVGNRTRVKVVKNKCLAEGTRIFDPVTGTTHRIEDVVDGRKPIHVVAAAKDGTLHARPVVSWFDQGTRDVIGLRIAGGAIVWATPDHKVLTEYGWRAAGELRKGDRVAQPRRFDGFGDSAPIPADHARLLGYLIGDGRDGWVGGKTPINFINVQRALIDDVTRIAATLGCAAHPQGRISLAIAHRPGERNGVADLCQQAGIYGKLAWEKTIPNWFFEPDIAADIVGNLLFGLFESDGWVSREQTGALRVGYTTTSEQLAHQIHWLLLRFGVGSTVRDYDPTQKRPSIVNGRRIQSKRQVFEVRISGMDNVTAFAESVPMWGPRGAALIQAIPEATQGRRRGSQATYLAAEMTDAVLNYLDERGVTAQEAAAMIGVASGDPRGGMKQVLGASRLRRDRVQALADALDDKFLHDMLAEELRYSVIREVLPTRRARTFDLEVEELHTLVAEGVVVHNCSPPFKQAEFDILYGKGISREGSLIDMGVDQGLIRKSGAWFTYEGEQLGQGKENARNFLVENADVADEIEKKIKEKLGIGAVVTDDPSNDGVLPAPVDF

[9] = inhibitors of intracellular T. cruzi replication, confirmation, NIH3T3 host cells, beta-gal luminescence (AID 2044); format: functional, cell-based;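 note: intracellular parasites grown in NIH/3T3 mouse fibroblasts as host cells; luminescent beta-galactosidase reporter signal from transgenic T. cruzi replicating inside host cells; inhibitors lower the luminescence signal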
[10] = cytotoxicity toward NIH3T3 fibroblasts, dose response, counter-screen, cell-based, ATP luminescence, mouse fibroblasts (AID 2010); format: functional;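 note: cells exposed to compound for about 90 hours before reading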
[11] = target: T6, Heat shock factor protein 1 (Mus musculus, UniProt P38532); assay: HSF1 potentiators in luciferase reporter cells, confirmation, cell-based, NIH3T3, luminescence, dose retest (AID 435004); format: functional;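 note: stress induced by proteasome inhibitor MG132 added 30 min after compound; luciferase reporter driven by HSF1 response element in NIH3T3 cells; actives raise luminescence as potentiators of the MG132 stress response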
T6 sequence (P38532 whole entry): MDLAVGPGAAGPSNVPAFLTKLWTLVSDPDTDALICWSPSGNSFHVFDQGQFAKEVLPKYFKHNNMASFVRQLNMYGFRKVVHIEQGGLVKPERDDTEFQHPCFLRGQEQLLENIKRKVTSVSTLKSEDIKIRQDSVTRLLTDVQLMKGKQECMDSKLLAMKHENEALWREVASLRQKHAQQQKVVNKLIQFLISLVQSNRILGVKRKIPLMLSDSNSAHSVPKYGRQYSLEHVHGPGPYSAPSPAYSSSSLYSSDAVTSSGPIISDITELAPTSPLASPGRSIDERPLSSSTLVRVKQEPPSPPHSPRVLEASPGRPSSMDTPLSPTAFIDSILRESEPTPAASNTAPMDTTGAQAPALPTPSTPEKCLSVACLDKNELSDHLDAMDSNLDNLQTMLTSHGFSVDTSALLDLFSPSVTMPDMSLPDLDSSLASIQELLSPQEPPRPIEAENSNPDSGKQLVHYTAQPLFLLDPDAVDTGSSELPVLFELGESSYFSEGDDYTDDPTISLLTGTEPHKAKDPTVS

Streptococcus = assay: Group A Streptococcus viability loss, dose response, counter-screen for streptokinase expression inhibitor project, luminescence, BacTiterGlo (AID 1915); format: functional, organism-based;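 note: potency for reduction of bacterial viability or growth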
[12] = system: Streptococcus sp. 'group A'; assay: growth inhibition of control SK(-) GAS strain, dose response, counter-screen for streptokinase expression inhibitor project, luminescence, kanamycin, BacTiterGlo, confirmation (AID 1900); format: functional, organism-based
INS1 = assay: beta cell apoptosis inhibitors, cytokine rescue, dose response, luminescence, retest (AID 449756); format: functional, cell-based; details: Rattus norvegicus;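 note: cell death triggered by IL-1 beta plus TNF-alpha plus IFN-gamma mixture; protective hits raise ATP signal compared with cytokine alone wells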

Chain of Voltage-dependent T-type calcium channel subunit alpha-1H (O95180 whole entry): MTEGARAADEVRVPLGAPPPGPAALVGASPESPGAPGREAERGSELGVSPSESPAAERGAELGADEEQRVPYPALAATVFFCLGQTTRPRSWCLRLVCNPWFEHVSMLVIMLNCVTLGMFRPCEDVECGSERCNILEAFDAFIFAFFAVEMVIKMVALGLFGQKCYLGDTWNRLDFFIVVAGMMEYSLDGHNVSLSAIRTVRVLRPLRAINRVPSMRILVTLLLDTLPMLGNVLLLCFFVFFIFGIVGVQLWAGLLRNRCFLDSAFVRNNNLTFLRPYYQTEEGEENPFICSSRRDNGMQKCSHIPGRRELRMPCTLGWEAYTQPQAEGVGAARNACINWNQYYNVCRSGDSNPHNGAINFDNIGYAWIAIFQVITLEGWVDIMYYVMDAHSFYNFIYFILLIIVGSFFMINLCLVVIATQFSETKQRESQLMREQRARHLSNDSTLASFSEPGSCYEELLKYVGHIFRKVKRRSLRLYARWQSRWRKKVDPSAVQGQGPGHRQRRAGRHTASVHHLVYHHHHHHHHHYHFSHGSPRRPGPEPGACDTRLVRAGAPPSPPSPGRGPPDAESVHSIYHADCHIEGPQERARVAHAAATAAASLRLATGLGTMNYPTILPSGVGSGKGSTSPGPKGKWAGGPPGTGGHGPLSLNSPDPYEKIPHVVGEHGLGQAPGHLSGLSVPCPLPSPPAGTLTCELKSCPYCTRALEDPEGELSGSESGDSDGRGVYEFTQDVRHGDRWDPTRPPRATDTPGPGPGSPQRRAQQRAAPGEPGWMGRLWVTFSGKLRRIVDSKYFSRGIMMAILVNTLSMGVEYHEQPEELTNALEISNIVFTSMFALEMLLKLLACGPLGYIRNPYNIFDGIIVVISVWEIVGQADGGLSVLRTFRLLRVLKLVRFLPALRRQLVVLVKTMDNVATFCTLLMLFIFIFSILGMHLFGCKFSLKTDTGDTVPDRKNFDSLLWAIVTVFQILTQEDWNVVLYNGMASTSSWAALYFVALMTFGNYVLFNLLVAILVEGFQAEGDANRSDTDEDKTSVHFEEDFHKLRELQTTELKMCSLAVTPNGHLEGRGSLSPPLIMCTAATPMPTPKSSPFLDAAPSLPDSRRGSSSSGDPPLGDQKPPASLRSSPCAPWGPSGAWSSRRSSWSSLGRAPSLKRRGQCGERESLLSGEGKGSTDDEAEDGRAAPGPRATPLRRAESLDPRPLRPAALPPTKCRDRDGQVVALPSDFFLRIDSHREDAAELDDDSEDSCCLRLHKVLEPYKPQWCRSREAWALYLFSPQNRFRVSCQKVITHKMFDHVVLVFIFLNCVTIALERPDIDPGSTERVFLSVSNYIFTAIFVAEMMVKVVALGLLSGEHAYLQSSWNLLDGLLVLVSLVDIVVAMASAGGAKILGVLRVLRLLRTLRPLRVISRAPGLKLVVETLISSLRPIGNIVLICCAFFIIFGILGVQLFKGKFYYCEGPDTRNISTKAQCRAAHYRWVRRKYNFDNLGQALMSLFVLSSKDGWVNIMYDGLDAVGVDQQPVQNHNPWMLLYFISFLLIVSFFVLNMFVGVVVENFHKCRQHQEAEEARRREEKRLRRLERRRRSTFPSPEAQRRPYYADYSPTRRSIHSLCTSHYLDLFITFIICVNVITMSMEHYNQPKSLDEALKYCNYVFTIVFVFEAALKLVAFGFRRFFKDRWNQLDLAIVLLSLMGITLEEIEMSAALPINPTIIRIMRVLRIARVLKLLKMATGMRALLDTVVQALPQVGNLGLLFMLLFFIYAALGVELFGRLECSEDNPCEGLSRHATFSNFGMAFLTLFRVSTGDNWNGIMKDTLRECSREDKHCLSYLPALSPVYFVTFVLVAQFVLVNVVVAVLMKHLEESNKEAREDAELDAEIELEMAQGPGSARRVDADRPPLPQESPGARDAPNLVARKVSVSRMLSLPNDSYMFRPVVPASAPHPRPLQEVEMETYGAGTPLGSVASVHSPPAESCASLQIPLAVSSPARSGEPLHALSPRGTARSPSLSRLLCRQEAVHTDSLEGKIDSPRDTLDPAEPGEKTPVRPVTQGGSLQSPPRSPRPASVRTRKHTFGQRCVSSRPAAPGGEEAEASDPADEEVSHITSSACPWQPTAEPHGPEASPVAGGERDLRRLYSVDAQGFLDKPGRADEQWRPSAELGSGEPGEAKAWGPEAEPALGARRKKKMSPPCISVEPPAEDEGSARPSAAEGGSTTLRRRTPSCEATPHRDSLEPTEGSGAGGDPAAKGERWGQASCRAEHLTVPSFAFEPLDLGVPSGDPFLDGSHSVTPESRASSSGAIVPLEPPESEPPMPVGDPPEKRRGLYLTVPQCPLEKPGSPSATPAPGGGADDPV

Compound: Cc1ccccc1NC(=O)c1ccc(CN2CCC(Cc3ccccc3)CC2)cc1
- EC50 [1]: 0.134 µM (active)

Compound: O=C(O)C1CCN(c2ccc(Cl)nn2)CC1
- IC50 (Prothrombin): > 50 µM (not active)

Compound: CN(CCNC(=O)C1CCN(c2ncnc3c2nc2n3CCCCC2)CC1)Cc1ccccc1
- IC50 [2]: 2.98 µM (active)
- IC50 [3]: 3.44 µM (active)
- IC50 (Bcl-2-related protein A1): > 20 µM (inactive)

Compound: COc1ccccc1NC(=O)CSc1nnc(-c2ccoc2C)n1CCc1ccccc1
- IC50 [2]: 8.82 µM (active)
- IC50 [3]: 9.91 µM (active)
- IC50 (Bcl-2-related protein A1): > 20 µM (inactive)

Compound: CCOC(=O)C(C)Sc1cc(CS(=O)(=O)c2ccccc2)nc(-c2ccccc2)n1 (centres undefined)
- EC50 [1]: 8.17 µM (active)

Compound: COc1ccc(-c2nc(C#N)c(NCc3ccccc3Cl)o2)cc1OC
- CC50 [4]: > 40 µM (active)
- EC50 [5]: 29.1 µM (active)
- EC50 [6]: 25.1 µM (active)

Compound: Nc1nc2ccccc2n1C(=O)c1ccco1
- IC50 (Prothrombin): > 50 µM (not active)

Compound: O=C(Nc1nc(-c2cccs2)cs1)c1ccc(S(=O)(=O)N2CCCCC2)cc1
- EC50 [1]: 3.4 µM (active)

Compound: CCCOc1ccc(C(=O)Nn2c(C)nc3ccccc3c2=O)cc1
- IC50 [2]: 1.32 µM (active)
- IC50 [3]: 1.54 µM (active)
- IC50 (Bcl-2-related protein A1): > 20 µM (inactive)

Compound: O=C(Nc1ccc(F)cc1F)c1ccc(-n2cncn2)nc1
- IC50 (Prothrombin): > 50 µM (not active)

Compound: CC(=O)Oc1ccc2ccccc2c1C(NC(=O)Cc1ccccc1)c1ccc(Cl)cc1 (centres undefined)
- AC50 (Cytochrome P450 2D6): 11.2 µM (inconclusive)
- AC50 (Cytochrome P450 1A2): 6.31 µM (inconclusive)
- AC50 [7]: 3.12 µM (active)
- EC50 [5]: 21.1 µM (active)
- EC50 [6]: 18.6 µM (active)
- AC50 [8]: 3.27 µM (active)
- EC50 (Protein RecA): 31.6 µM (active)

Compound: Cc1ccc2[nH]c(SCCCCOc3ccccc3)nc2c1
- EC50 [1]: 2.25 µM (active)

Compound: CCOC(=O)c1c(NC(=O)COc2ccccc2C#N)sc2c1CC(C)(C)NC2(C)C
- IC50 [2]: 4.91 µM (active)
- IC50 [3]: 5.94 µM (active)
- IC50 (Bcl-2-related protein A1): > 20 µM (inactive)

Compound: COc1ccccc1NC(=O)c1sc2ncn(Cc3ccc(C)cc3)c(=O)c2c1C
- IC50 (Prothrombin): > 50 µM (not active)

Compound: Cn1c(CNc2cccc(Cl)c2)nnc1SCC(=O)OC1CCCCC1
- EC50 [1]: 2.53 µM (active)

Compound: COc1ccc(-c2ccc(CCC(=O)O)n2-c2ccccc2O)cc1
- IC50 (Prothrombin): 10.5 µM (active)

Compound: CC(C)N=C(S)N=Nc1c(O)[nH]c2ccc(C(C)C)cc12
- IC50 [2]: 3.56 µM (active)
- IC50 [3]: 19.2 µM (active)
- EC50 [9]: 2.06 µM (active)
- IC50 (Bcl-2-related protein A1): > 20 µM (inactive)
- EC50 [10]: 11 µM (active)

Compound: Cc1cccc(NC(=S)N=Nc2c(O)[nH]c3ccccc23)c1
- IC50 [2]: 0.594 µM (active)
- EC50 [11]: 8.45 µM (active)
- IC50 [3]: 15 µM (active)
- EC50 [9]: 1.53 µM (active)
- IC50 (Bcl-2-related protein A1): > 20 µM (inactive)
- EC50 [10]: 4.49 µM (active)

Compound: Clc1ccc2c(N/N=C/c3cccc(Br)c3)ccnc2c1
- EC50 (Streptococcus): 4.4 µM (active)
- AC50 [7]: 5.63 µM (active)
- EC50 [5]: 4.89 µM (active)
- EC50 [6]: 4.59 µM (active)
- EC50 [12]: 3.24 µM (active)
- AC50 (INS1): 7.17 µM (active)
